Results from patent US20160177261A1, “METHODS OF INDUCING AND PREVENTING NEUROFIBROMATOSIS IN SCHWANN CELLS” (University of Central Florida Research Foundation, Inc., priority 2007, published 2016).
Entries after “also recorded” stand apart in the source; their conditions may differ.

Key:
Type in all cases: cell-based, rat
P-ErbB2 = assay: Western blot densitometry of phosphorylated ErbB2 in subconfluent SCs; conditions: NRG1 10 ng/ml 30 min with AG825 (1 μM)
Protocol: (§1) FIG. 3: NRG1 stimulates phosphorylation of Sch by PKA. A, C) Subconfluent SC cultures grown on PLL were serum-starved overnight and were stimulated for 30 minutes with NRG1 (10 ng/ml) in the absence and presence of AG825 (1 μM). Western blot analysis was used to determine the levels of phosphorylated and total ErbB2, Sch, and Pak. B, D) Quantification of the western blots of starved (D0.5), NRG1 stimulated (NRG) and NRG1 plus AG825 (N+A) stimulated cultures is shown. E) Subconfluent SCs grown as above were stimulated for 30 minutes with NRG in the presence and absence of PKI 14-22 (50 nM), and with forskolin (FSK; 2 μM) alone. F) Quantification of the Western blots for ErbB2, Sch, and Pak in starved (D0.5) cultures, and in those stimulated with NRG1 (NRG), NRG1 with PKI 14-22 (N+P), and forskolin (FSK) is shown. GAPDH was used as a loading control for all blots. The graphs represent the average fold increase in each condition in three or more experiments. Error bars represent the SEM for each condition. […]
Primary rat SCs were grown to approximately 60% confluency on PLL coated dishes. […] Following extraction, the SC lysate was measured for protein concentration, and […] of total SC lysate was separated by SDS-PAGE and was transferred to PVDF membranes. […] Bands intensities were quantified and normalized to GAPDH, and to their respective total proteins for phosphorylated forms. […]

PS518-Sch = assay: Western blot densitometry of Sch-S518 phosphorylation in subconfluent SCs
Protocol: FIG. 3: NRG1 stimulates phosphorylation of Sch by PKA. A, C) Subconfluent SC cultures grown on PLL were serum-starved overnight and were stimulated for 30 minutes with NRG1 (10 ng/ml) in the absence and presence of AG825 (1 μM). Western blot analysis was used to determine the levels of phosphorylated and total ErbB2, Sch, and Pak. B, D) Quantification of the western blots of starved (D0.5), NRG1 stimulated (NRG) and NRG1 plus AG825 (N+A) stimulated cultures is shown. E) Subconfluent SCs grown as above were stimulated for 30 minutes with NRG in the presence and absence of PKI 14-22 (50 nM), and with forskolin (FSK; 2 μM) alone. F) Quantification of the Western blots for ErbB2, Sch, and Pak in starved (D0.5) cultures, and in those stimulated with NRG1 (NRG), NRG1 with PKI 14-22 (N+P), and forskolin (FSK) is shown. GAPDH was used as a loading control for all blots. The graphs represent the average fold increase in each condition in three or more experiments. Error bars represent the SEM for each condition. P values are <0.05(*) with respect to starved SCs or as indicated.
(§2) FIG. 4: Soluble Laminin-1 Stimulates Phosphorylation of Sch. A, C) Subconfluent SC cultures grown on PLL were stimulated with laminin-1 (10 μg/ml) for 30 minutes after overnight serum starvation. Western blot analysis using antibodies specific for the phosphorylated forms of Sch (PS518-Sch) and Pak (P-Pak) and antibodies against total Sch (Sch-C18), Pak, and β1 integrin are shown. B, D). Quantification of Western blots for starved (D0.5) and laminin-1 stimulated (Lam) cultures is shown. The graphs represent the average fold increase in each condition observed in three or more experiments. GAPDH was used as a loading control for all blots. Error bars represent the SEM for each condition. P values are <0.05(*) and <0.01(**).
Subconfluent SC cultures grown on PLL were serum-starved overnight and were stimulated for 30 minutes with NRG1 (10 ng/ml) and laminin-1 ([…]) together, in the absence and presence of AG825 (1 μM). A, C, E, G) Western blot analyses were conducted using phospho-specific antibodies for Sch (PS518-Sch), Pak (P-Pak), and CREB (P-CREB). Total protein expression was analyzed using antibodies against Sch (Sch-C18), Pak, β1 integrin, and ErbB2. B, D, F) Quantification of the expression levels of phosphorylated forms of Sch (PS518-Sch) and Pak (P-Pak) were assessed in starved (D0.5), NRG1 and laminin-1 stimulated (NRG+Lam), and NRG1 plus laminin-1 and AG825 (N+L+A) stimulated cultures. The amount of total Sch (Sch-C18), Pak, β1 integrin, and ErbB2 proteins were measured by densitometry. GAPDH was used as a loading control. The graphs represent the average fold increase in each condition in three or more experiments. Error bars represent the SEM for each condition. […]

P-Pak = assay: Western blot densitometry of phosphorylated Pak in subconfluent SCs
Protocol: as §1, with “shown.” for “shown. GAPDH was used as a loading control for all blots. The graphs represent the average fold increase in each condition in three or more experiments. Error bars represent the SEM for each condition.”
FIG. 4: Soluble Laminin-1 Stimulates Phosphorylation of Sch. […] Quantification of Western blots for starved (D0.5) and laminin-1 stimulated (Lam) cultures is shown. […]
Subconfluent SC cultures grown on PLL were serum-starved overnight and were stimulated for 30 minutes with NRG1 (10 ng/ml) and laminin-1 ([…]) together, in the absence and presence of AG825 (1 μM). […] Total protein expression was analyzed using antibodies against Sch (Sch-C18), Pak, β1 integrin, and ErbB2. […] The amount of total Sch (Sch-C18), Pak, β1 integrin, and ErbB2 proteins were measured by densitometry. […]

P-CREB = assay: Western blot of phosphorylated CREB in subconfluent SCs
Protocol: as §1, with “shown.” for “shown. GAPDH was used as a loading control for all blots. The graphs represent the average fold increase in each condition in three or more experiments. Error bars represent the SEM for each condition.”
(§3) Subconfluent SC cultures grown on PLL were serum-starved overnight and were stimulated for 30 minutes with NRG1 (10 ng/ml) and laminin-1 ([…]) together, in the absence and presence of AG825 (1 μM). […] Total protein expression was analyzed using antibodies against Sch (Sch-C18), Pak, β1 integrin, and ErbB2. B, D, F) Quantification of the expression levels of phosphorylated forms of Sch (PS518-Sch) and Pak (P-Pak) were assessed in starved (D0.5), NRG1 and laminin-1 stimulated (NRG+Lam), and NRG1 plus laminin-1 and AG825 (N+L+A) stimulated cultures. […]

ErbB2 = assay: Western blot densitometry of total ErbB2 protein in subconfluent SCs
Protocol: as §1, with “experiments.” for “experiments. Error bars represent the SEM for each condition.”
(§4) FIG. 6: β1 integrin and ErbB2 Exist as a Complex on the Plasma Membrane. […] E) Quantification of total β1 integrin and ErbB2 expression was assessed by densitometry in starved (D0.5), NRG1 stimulated (NRG) and NRG with AG825 (N+A) stimulated cultures. […] G) Quantification of total β1 integrin and ErbB2 expression in starved (D0.5), laminin-stimulated (Lam) and laminin+AG825 (L+A) stimulated cultures is shown. […]

β1 integrin = assay: Western blot densitometry of total β1 integrin protein in subconfluent SCs
Protocol: as §2
as §4, with “Membrane. A) Subconfluent SC cultures grown on PLL and laminin-1 were starved overnight and were stimulated with NRG1 for 30 minutes. SCs were triple-labeled with the indicated antibodies to assess protein co-localization.” for “Membrane.”
as §3, with “cultures. The amount of total Sch (Sch-C18), Pak, β1 integrin, and ErbB2 proteins were measured by densitometry.” for “cultures.”

Pak = assay: Western blot densitometry of total Pak protein in subconfluent SCs; conditions: NRG1 and laminin-1 30 min in the presence and absence of AG825
Protocol: as §2
as §3, with “cultures. The amount of total Sch (Sch-C18), Pak, β1 integrin, and ErbB2 proteins were measured by densitometry.” for “cultures.”

Sch = assay: Western blot densitometry of total Sch (Sch-C18) protein in subconfluent SCs; conditions: NRG1 and laminin-1 30 min in the presence and absence of AG825
Protocol: as §2
as §3, with “cultures. The amount of total Sch (Sch-C18), Pak, β1 integrin, and ErbB2 proteins were measured by densitometry.” for “cultures.”

[1] = AG825 in the absence of NRG1 (data not shown)
[2] = NRG1 and laminin-1 30 min in the presence of AG825 (1 μM), compared to starved SCs

SMILES: COc1cc(/C=C(\C#N)C(N)=O)cc(CSc2nc3ccccc3s2)c1O [AG825]
- effect on NRG1 stimulated phosphorylation of ErbB2 (P-ErbB2): reduced NRG1 stimulated phosphorylation of ErbB2 significantly
- effect on basal level of phosphorylated Sch (PS518-Sch; [1]): increases basal levels
- reduction of Sch-S518 phosphorylation in response to NRG1 (PS518-Sch; NRG1 10 ng/ml 30 min with inhibitor (AG825 1 μM or PKI 14-22 50 nM)): 50%
- effect on NRG1 stimulated Sch-S518 phosphorylation (PS518-Sch; NRG1 30 min with inhibitor (AG825 1 μM or PKI 14-22 50 nM)): reduced
- PS518-Sch fold increase (PS518-Sch; [2]): 4.6 fold
- effect on basal level of phosphorylated Pak (P-Pak; [1]): increases basal levels
- P-Pak fold increase (P-Pak; [2]): 3.1 fold
- effect on NRG1 stimulated CREB phosphorylation (P-CREB; NRG1 30 min with inhibitor (AG825 or PKI 14-22 50 nM)): inhibit this phosphorylation
- effect on CREB phosphorylation in dually stimulated SCs (P-CREB; NRG1 and laminin-1 30 min with AG825 (1 μM)): inhibited phosphorylation of CREB; also recorded: eliminated
- effect on NRG1 induced change of ErbB2 protein levels (ErbB2; NRG1 30 min with AG825 (1 μM)): attenuated the reduction in ErbB2 levels; also recorded: suppressed NRG1's effect; also recorded: attenuates the loss of ErbB2 protein
- effect on ErbB2 levels (ErbB2; laminin-1 30 min with AG825 (1 μM), with respect to laminin-stimulated SCs): did not alter
- effect on NRG1 induced increase of β1 integrin protein levels (β1 integrin; NRG1 30 min with AG825 (1 μM)): suppressed NRG1's effect; also recorded: inhibits the increase in β1 integrin
- effect on β1 integrin protein levels (β1 integrin; NRG1 and laminin-1 30 min in the presence and absence of AG825): not significantly changed
- decrease in β1 integrin levels (β1 integrin; laminin-1 30 min with AG825 (1 μM)): 50%
- effect on Pak protein levels (Pak): not significantly changed
- effect on Sch protein levels (Sch): not significantly changed
